Measurements taken from ChEMBL document CHEMBL4145563, “Poecillastrin H, a Chondropsin-Type Macrolide with a Conjugated Pentaene Moiety, from a Characella sp. Marine Sponge” (J Nat Prod, 2018).
Activity calls are given as the source filed them. No cut-off for these calls is given here.

Tests used:
3Y1 cell line [1] = assay: Cytotoxicity against rat 3Y1 cells after 72 hrs by MTT assay; type: functional, cell-based; conditions: 3Y1, 72 h
3Y1 cell line [2] = assay: Induction of morphological changes in rat 3Y1 cells assessed as elongation of cells; type: functional, cell-based

SMILES	IC50 (3Y1 cell line [1])	Activity (3Y1 cell line [2])
C/C1=C\CC(O)C(C)C(C(NC(=O)C(C)C(O)CCC(C)C(O)/C(C)=C/C(C)(C)C(O)C(CC(C)C)NC(=O)/C=C/C(C)(C)C(=O)C(C)C(O)C(C)C)C(C)O)OC(=O)[C@H](O)[C@H](C(=O)O)NC(=O)/C=C/C=C/C=C/C=C/C=C/CC2CC(C)CC(CC(O)C(C)C(O)/C(C)=C/C(C)C1O)O2 (stereo partly drawn)	4.1 nM	Active
CO/C1=C\C(C)=C\[C@@H](C)[C@@H](O)[C@@H](C)C/C(C)=C/C=C/[C@H](OC)[C@@H]([C@@H](C)[C@@H](O)[C@H](C)[C@@]2(O)C[C@@H](O)[C@H](C)[C@@H](C(C)C)O2)OC1=O		Active
